PMC7802075 (ACS Infectious Diseases, 2020)

Each compound was assayed against T1, LmjIPCS (inositol phosphorylceramide synthase from L. major) (Leishmania major, UniProt E9AFX2) (assay: biochemical). Settings: not given.
T1 sequence (E9AFX2 1-338): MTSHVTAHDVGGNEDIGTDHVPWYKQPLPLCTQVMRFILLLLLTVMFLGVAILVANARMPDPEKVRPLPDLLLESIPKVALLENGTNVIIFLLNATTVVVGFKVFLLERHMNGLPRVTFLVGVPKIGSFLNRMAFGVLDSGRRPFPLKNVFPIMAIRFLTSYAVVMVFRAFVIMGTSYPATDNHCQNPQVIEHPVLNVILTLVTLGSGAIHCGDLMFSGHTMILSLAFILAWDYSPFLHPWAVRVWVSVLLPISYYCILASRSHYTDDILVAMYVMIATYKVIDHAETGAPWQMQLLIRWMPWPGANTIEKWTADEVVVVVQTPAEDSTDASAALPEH
Assay type: biochemical
Set-up: inhibition: dose or concentration left out as unconfirmed

Compound | 20mM inhibition LmjIPCS
CC(=O)OCC(=O)[C@@]1(O)CC[C@H]2[C@@H]3CCC4=CC(=O)CC[C@]4(C)[C@H]3C(=O)C[C@@]21C [CORTISONE ACETATE] | 62%
Cc1ccc(/C(=C\CN2CCCC2)c2ccccn2)cc1 [TRIPROLIDINE] | 42%
COc1ccccc1N1CCNCC1 [1- (2-METHOXYPHENYL)PIPERAZINE] | 30%
NS(=O)(=O)c1cc(C2(O)NC(=O)c3ccccc32)ccc1Cl (stereo not drawn) [CHLORTHALIDONE] | 42%
O=C(CCCN1CC=C(n2c(=O)[nH]c3ccccc32)CC1)c1ccc(F)cc1 [DROPERIDOL] | 56%
NCCCCCCNS(=O)(=O)c1cccc2c(Cl)cccc12 | 59%
CC(NCCc1ccc(O)cc1)C(O)c1ccc(O)cc1 (stereo not drawn) [RITODRINE] | 58%
Nc1c2c(nc3ccccc13)CCCC2O.O=C(O)/C=C\C(=O)O (stereo not drawn) [HYDROXYTACRINE MALEATE] | 11%
Oc1c(Br)cc(Br)c2cccnc12 [BROXYQUINOLINE] | 61%
CCCCC1C(=O)N(c2ccccc2)N(c2ccc(O)cc2)C1=O (stereo not drawn) [OXYPHENBUTAZONE] | 45%
CCOC(=O)OC(C)OC(=O)[C@@H]1N2C(=O)[C@@H](NC(=O)[C@H](N)c3ccccc3)[C@H]2SC1(C)C (stereo partly drawn) [BACAMPICILLIN] | 48%
Clc1cccc(Cl)c1N=C1NCCN1 [CLONIDINE] | 43%

Same assay, conditions: NINDS set screen, compound at 20mM (so in the source)

Compound | 20mM inhibition LmjIPCS
N.N.[Cl][Pt][Cl] [CISPLATIN] | 21%

Same assay, conditions: NINDS set screen, single concentration printed as 20mM

Compound | 20mM inhibition LmjIPCS
CAPREOMYCIN | 52%
CCOC(=O)C1=C[C@]2(CC)CCCN3CCc4c(n1c1ccccc41)[C@@H]32 [VINPOCETINE] | 36%
CN(C)c1ccc(C(=C2C=CC(=[N+](C)C)C=C2)c2ccc(N(C)C)cc2)cc1 [GENTIAN VIOLET] | 64%
CC1(C)[C@H]2CC[C@@]1(C)C(=O)C2 [1R-CAMPHOR] | 46%
CN1CCCC(n2nc(Cc3ccc(Cl)cc3)c3ccccc3c2=O)CC1 (stereo not drawn) [AZELASTINE] | 56%
Cc1cc(C2CCCCC2)n(O)c(=O)c1 [CICLOPIROX OLAMINE] | 66%
BACITRACIN | 44%
CC(C)=CC1C(C(=O)O)C1(C)C (stereo not drawn) [CHRYSANTHEMIC ACID] | 69%

Same assay, conditions: NINDS set screen; read-out: inhibition LmjIPCS

Compound | inhibition
NCC[C@H](O)C(=O)N[C@@H]1C[C@H](N)[C@@H](O[C@H]2O[C@H](CN)[C@@H](O)[C@H](O)[C@H]2O)[C@H](O)[C@H]1O[C@H]1O[C@H](CO)[C@@H](O)[C@H](N)[C@H]1O [AMIKACIN] | 21%
CC[C@@H]1C(=O)OC[C@@H]1Cc1cncn1C [PILOCARPINE] | -4.6%
Cn1c(=O)[nH]c2ncn(C)c2c1=O [PARAXANTHINE] | -5.66%
Nc1nc2c(c(=O)[nH]1)N(C=O)C(CNc1ccc(C(=O)N[C@@H](CCC(=O)O)C(=O)O)cc1)CN2 (stereo partly drawn) [LEUCOVORIN] | 17%
CC(=O)/N=c1/sc(S(N)(=O)=O)nn1C [METHAZOLAMIDE] | -4.59%
C=CCSCC=C [DIALLYL SULFIDE] | 17%
COC(=O)N/N=C/c1c[n+]([O-])c2ccccc2[n+]1[O-] [CARBADOX] | 12%
CN(C)CCOC(=O)C(c1ccccc1)C1(O)CCCC1 (stereo not drawn) [CYCLOPENTOLATE] | 16%
O=C(O)C1=CCCNC1 [GUVACINE] | 14%

Same assay, conditions: read-out: 20mM inhibition LmjIPCS

Compound | inhibition at 20000 µM
Nc1nccs1 [AMINOTHIAZOLE] | -32%
Cc1ccc(Cl)c(Nc2ccccc2C(=O)O)c1Cl [MECLOFENAMATE] | 6%
Nc1c2ccccc2nc2ccccc12 [AMINACRINE] | -11%
OCCN1C[C@H](O)[C@@H](O)[C@H](O)[C@H]1CO [MIGLITOL] | -0.821%
COc1cnc(NS(=O)(=O)c2ccc(N)cc2)nc1 | 21%
CC(=O)N[C@@H](CC(=O)O)C(=O)O [N-ACET[…]] | -3%
OCc1c[nH]c2ccccc12 [INDOLE-3-CARBINOL] | 11%
c1ccc2c(c1)[nH]c1cnccc12 [NORHARMAN] | 17%
COC1=C[C@@H]2[C@@H]3Cc4ccc(OC)c(O)c4[C@]2(CCN3C)CC1=O [SINOMENINE] | 8%
N[C@H](CO)Cc1ccccc1 [L-PHENYLALANINOL] | 24%
C/C=C(/C(=C/C)c1ccc(O)cc1)c1ccc(O)cc1 [DIENESTROL] | -4%
CCOC(N)=O | 11%
CC(=O)OCC(CCn1cnc2cnc(N)nc21)COC(C)=O [FAMCICLOVIR] | 1.36%
CC(C)[N+]1(C)[C@@H]2CC[C@H]1C[C@@H](OC(=O)C(CO)c1ccccc1)C2 (stereo partly drawn) [IPRATROPIUM BROMIDE] | -7%
CN1[C@@H]2CC[C@H]1C[C@@H](OC(=O)C(CO)c1ccccc1)C2 (stereo partly drawn) [ATROPINE] | 26%
CCN(CC)C(=O)c1cccc(C)c1 [DIETHYLTOLUAMIDE] | 17%
CN1[C@@H]2CC[C@H]1C[C@@H](OC(=O)[C@H](CO)c1ccccc1)C2 [HYOSCYAMINE] | 4%

Compound | inhibition at 20000 µM
Cc1ccc(S(=O)(=O)NC(=O)NN2CCCCCC2)cc1 [TOLAZAMIDE] | -5%
NS(=O)(=O)c1cc2c(cc1C(F)(F)F)NCNS2(=O)=O [HYDROFLUMETHIAZIDE] | 9%
NC(=O)c1ccc[n+]([C@@H]2O[C@H](COP(=O)([O-])OP(=O)(O)OC[C@H]3O[C@@H](n4cnc5c(N)ncnc54)[C@H](OP(=O)(O)O)[C@@H]3O)[C@@H](O)[C@H]2O)c1 | 7%
CC(=O)[C@H]1CC[C@H]2[C@@H]3C[C@H](C)C4=CC(=O)CC[C@]4(C)[C@H]3[C@@H](O)C[C@]12C [MEDRYSONE] | 14%
Cn1c(=O)c2[nH]c(C3CCCC3)nc2n(C)c1=O [8-CYCLOPENTYLTHEOPHYLLINE] | 4.71%
Nc1ccc(S(=O)(=O)Nc2ncccn2)cc1 [SULFADIAZINE] | 18%
CC(=O)N[C@@H](CC(C)C)C(=O)O [ACETYL-L-LEUCINE] | 8%
CS(=O)(=O)c1ccc([C@@H](O)[C@@H](CO)NC(=O)C(Cl)Cl)cc1 [THIAMPHENICOL] | 0.377%
O=C1c2ccccc2-c2cccc3cccc1c23 [BENZANTHRONE] | 16%
CCCCCC(C)N (stereo not drawn) [TUAMINOHEPTANE] | 26%
CC(=O)OCC(=O)[C@@]12OC3(CCCC3)O[C@@H]1C[C@H]1[C@@H]3CCC4=CC(=O)C=C[C@]4(C)[C@@]3(F)[C@@H](O)C[C@@]12C [AMCINONIDE] | 11%
CC(C)(Sc1cc(C(C)(C)C)c(O)c(C(C)(C)C)c1)Sc1cc(C(C)(C)C)c(O)c(C(C)(C)C)c1 [PROBUCOL] | 25%
CO[C@@]1(NC(=O)CSCC#N)C(=O)N2C(C(=O)O)=C(CSc3nnnn3C)CS[C@@H]21 [CEFMETAZOLE] | 13%
CC(=O)N[C@@H](CCC(=O)O)C(=O)O [ACET[…]] | -20%
CN(C)[C@@H]1C(O)=C(C(N)=O)C(=O)[C@@]2(O)C(O)=C3C(=O)c4c(O)cccc4[C@@](C)(O)[C@H]3[C@H](O)[C@@H]12 [OXYTETRACYCLINE] | 18%
C=C1[C@@H]2CC[C@H]3[C@]4(C)C[C@H](O[C@@H]5O[C@H](CO)[C@@H](OS(=O)(=O)O)[C@H](OS(=O)(=O)O)[C@H]5OC(=O)CC(C)C)C[C@@H](C(=O)O)[C@H]4CC[C@]3(C2)[C@H]1O [ATRACTYLOSIDE] | 18%

Same assay, conditions: read-out: inhibition LmjIPCS

Compound | inhibition
CCN(CC)CCNC(=O)c1cc(Cl)c(N)cc1OC [METOCLOPRAMIDE] | 6%
C[C@]12CCC(=O)C=C1CC[C@@H]1[C@@H]2[C@@H](O)C[C@@]2(C)[C@H]1CC[C@]2(O)C(=O)CO [HYDROCORTISONE] | 13%
Nc1ncn([C@@H]2O[C@H](CO)[C@@H](O)[C@H]2O)c(=O)n1 [AZACITIDINE] | 12%
O=c1cc(CO)occ1O [KOJIC ACID] | 11%
CCc1cccc2c3c([nH]c12)C(CC)(CC(=O)O)OCC3 (stereo not drawn) [ETODOLAC] | 13%
COc1ccc2[nH]cc(CCNC(C)=O)c2c1 [MELATONIN] | -5.63%
CC(C)NCC(O)c1ccc(O)c(O)c1 (stereo not drawn) [ISOPROTERENOL] | 11%
CC1(C)[C@@H](OC(=O)CCC(=O)O)CC[C@]2(C)[C@H]3C(=O)C=C4[C@@H]5C[C@@](C)(C(=O)O)CC[C@]5(C)CC[C@@]4(C)[C@]3(C)CC[C@@H]12 [CARBENOXOLONE] | 1.66%
NCCCC(=O)O [gamma-AMINOBUTYRIC ACID] | -20%
COc1ccc2c(c1)c(CC(=O)O)c(C)n2C(=O)c1ccc(Cl)cc1 [INDOMETHACIN] | -3.42%
NCCCC[C@H](N[C@@H](CCc1ccccc1)C(=O)O)C(=O)N1CCC[C@H]1C(=O)O [LISINOPRIL] | 6%
CCN(CC)CCNC(=O)c1ccc(N)cc1 [PROCAINAMIDE] | 19%

Same assay, conditions: screening of NINDS set, sheet Screen 1; read-out: inhibition LmjIPCS

Compound | inhibition
N[C@H](Cc1ccccc1)C(=O)O [D-PHENYLALANINE] | 9%
CC(C)(C)NCC(O)c1cc(O)cc(O)c1 (stereo not drawn) [TERBUTALINE] | 9%
CC1CC(OC(=O)C(O)c2ccccc2)CC(C)(C)N1C (stereo not drawn) [EUCATROPINE] | 8%
COc1ccc(C2C(=O)c3ccccc3C2=O)cc1 [ANISINDIONE] | 10%

Same assay, conditions: single concentration 20mM as printed; screening of NINDS set, sheet Screen 1

Compound | 20mM inhibition LmjIPCS
C[C@H]1O[C@@H](n2cc(F)c(=O)[nH]c2=O)[C@H](O)[C@@H]1O [5-FLUORO-5'-DEOXYURIDINE] | 3.33%
NC(=O)NO [HYDROXYUREA] | 11%
